Where “and” joins values, the source holds several entries; their conditions need not be identical. Equal values may be shown once.
Test system: MCA205 tumor cells
Assay: In vivo anti-tumoral activity of Example 166 in a MCA205 tumor model
Set-up: species or system C57BL/6 mice
Protocol: Sarcoma MCA205 tumor cell line was cultured in vitro in DMEM supplemented with 10% FBS, 1% Penicillin-Streptomycin, 1 mM HEPES. Before inoculation in mice, cell viability was assessed by flow cytometry analysis and viable cell gating. A cell suspension was prepared according to the viable cell count.
Female C57BL/6 mice were inoculated subcutaneously in the right flank region with MCA205 tumor cells (0.5×10^6) in 0.1 ml of PBS for tumor development on day 1. Tumor volumes were measured thrice per week in two dimensions using a caliper, and the volume was expressed in mm^3 using the formula: “V=(L×W×W)/2”, where V is tumor volume, L is tumor length (the longest tumor dimension) and W is tumor width (the longest tumor dimension perpendicular to L). When the mean tumor size reached approximately 80 mm^3, mice were randomly allocated into groups (10 mice per group) and treated with or without an anti-PD-1 antibody (RPM1-14, 5 mg/kg, ip, on days 1, 4, 7, 10), with or without the compound of Example 166 (30 or 100 mg/kg, po, QD, 5% DMSO/95% (10% w/v solution of HP-3-CD in water) v/v) for 23 days).
Animals were checked daily for morbidity and mortality. During routine monitoring, the animals were checked for any effects on tumor growth and treatments on behavior such as mobility, food and water consumption, body weight gain/loss (body weights were measured thrice per week), eye/hair matting and any other abnormalities.

C[C@H](NC(=O)C1(N2CC[C@@H](Oc3cccc(C(F)(F)F)c3)C2)CC1)c1ccc(C(=O)O)cc1.Cl [Example 166, 4-[(1S)-1-[[1-[(3R)-3-[3-(Trifluoromethyl)phenoxy]pyrrolidin-1-yl]cyclopropane-1-carbonyl]amino]ethyl]benzoic acid, hydrochloride]
Tumor Growth Inhibition TGI (%) (Example 166 30 mg/kg po QD + anti-PD1 antibody 5 mg/kg ip, day 1): 0.1% | Tumor Growth Inhibition TGI (%) (Example 166 30 mg/kg po QD + anti-PD1 antibody 5 mg/kg ip, day 3): 8.3% | Tumor Growth Inhibition TGI (%) (Example 166 30 mg/kg po QD + anti-PD1 antibody 5 mg/kg ip, day 6): 30.6% | Tumor Growth Inhibition TGI (%) (Example 166 30 mg/kg po QD + anti-PD1 antibody 5 mg/kg ip, day 8): 47.4% | Tumor Growth Inhibition TGI (%) (Example 166 30 mg/kg po QD + anti-PD1 antibody 5 mg/kg ip, day 10): 58.6% | Tumor Growth Inhibition TGI (%) (Example 166 30 mg/kg po QD + anti-PD1 antibody 5 mg/kg ip, day 13): 55.7% | Tumor Growth Inhibition TGI (%) (Example 166 30 mg/kg po QD + anti-PD1 antibody 5 mg/kg ip, day 15): 49.3% | Tumor Growth Inhibition TGI (%) (Example 166 30 mg/kg po QD + anti-PD1 antibody 5 mg/kg ip, day 17): 52.2% | Tumor Growth Inhibition TGI (%) (Example 166 30 mg/kg po QD, day 1): −6.1% | Tumor Growth Inhibition TGI (%) (Example 166 30 mg/kg po QD, day 3): −6.3% | Tumor Growth Inhibition TGI (%) (Example 166 30 mg/kg po QD, day 6): −22.4% | Tumor Growth Inhibition TGI (%) (Example 166 30 mg/kg po QD, day 8): 9.8% | Tumor Growth Inhibition TGI (%) (Example 166 30 mg/kg po QD, day 10): 10.2% | Tumor Growth Inhibition TGI (%) (Example 166 30 mg/kg po QD, day 13): 6.4% | Tumor Growth Inhibition TGI (%) (Example 166 30 mg/kg po QD, day 15): 4.3% | Tumor Growth Inhibition TGI (%) (Example 166 30 mg/kg po QD, day 17): 10.8% | Tumor Growth Inhibition TGI (%) (Example 166 100 mg/kg po QD + anti-PD1 antibody 5 mg/kg ip, day 1): 1.4% | Tumor Growth Inhibition TGI (%) (Example 166 100 mg/kg po QD + anti-PD1 antibody 5 mg/kg ip, day 3): 12.2% | Tumor Growth Inhibition TGI (%) (Example 166 100 mg/kg po QD + anti-PD1 antibody 5 mg/kg ip, day 6): 34.3% | Tumor Growth Inhibition TGI (%) (Example 166 100 mg/kg po QD + anti-PD1 antibody 5 mg/kg ip, day 8): 50.2% | Tumor Growth Inhibition TGI (%) (Example 166 100 mg/kg po QD + anti-PD1 antibody 5 mg/kg ip, day 10): 66.6% | Tumor Growth Inhibition TGI (%) (Example 166 100 mg/kg po QD + anti-PD1 antibody 5 mg/kg ip, day 13): 70.4% | Tumor Growth Inhibition TGI (%) (Example 166 100 mg/kg po QD + anti-PD1 antibody 5 mg/kg ip, day 15): 67.3% | Tumor Growth Inhibition TGI (%) (Example 166 100 mg/kg po QD + anti-PD1 antibody 5 mg/kg ip, day 17, hydrochloride): 68.0% and 68.1% | Tumor Growth Inhibition TGI (%) (Example 166 100 mg/kg po QD, day 1): −0.7% | Tumor Growth Inhibition TGI (%) (Example 166 100 mg/kg po QD, day 3): 13.2% | Tumor Growth Inhibition TGI (%) (Example 166 100 mg/kg po QD, day 6): 12.1% | Tumor Growth Inhibition TGI (%) (Example 166 100 mg/kg po QD, day 8): 16.7% | Tumor Growth Inhibition TGI (%) (Example 166 100 mg/kg po QD, day 10): 25.7% | Tumor Growth Inhibition TGI (%) (Example 166 100 mg/kg po QD, day 13): 32.6% | Tumor Growth Inhibition TGI (%) (Example 166 100 mg/kg po QD, day 15): 23.6% | Tumor Growth Inhibition TGI (%) (Example 166 100 mg/kg po QD, day 17, hydrochloride, 100 mg/kg): 31.0%

Reference: US12527779B2, “Prostaglandin E2 (PGE2) EP4 receptor antagonists” (Domain Therapeutics, priority 2019, dated 2026)
